Assay results from patent US8354426B2, “Naphthyridine derivative monohydrate and method for producing the same” (Toyama Chemical Co., Ltd., priority 2007, dated 2013).
Counter-ions that a name gives are not always drawn.

Assays:
Hygroscopicity test = type: physicochemical; settings: stored three weeks, room temperature, relative humidity 97%
Excerpt: The compound of the present invention and the comparative compound were stored for three weeks under the conditions of room temperature and the relative humidity of 97%. […] On the other hand, the comparative compound had deliquesced.

S. aureus Smith = assay: Susceptibility test (MIC, microtiter broth dilution); type: cell-based; settings: Staphylococcus aureus, CAMHB, overnight at 35° C.
Description: (§1) The compound of the present invention was dissolved in dimethyl sulfoxide and measured for the antibacterial activity (MIC) by a microtiter broth dilution method recommended by Japanese Society of Chemotherapy.
(§2) Staphylococcus aureus (S. aureus Smith, FDA209P, F-3095), Enterococcus faecalis (E. faecalis D-2648) and Escherichia coli (E. coli NIHJ) were used as the bacteria.
(§3) The bacterial cells, grown overnight on a Mueller-Hinton agar: MHA plate at 35° C., were suspended in a sterilized physiological saline so as to be a 0.5 McFarland equivalent standard. The cell suspension was diluted ten-fold to prepare an inoculum. Approximately 0.005 mL of the inoculum was inoculated into a cation-adjusted Mueller-Hinton broth (CAMHB), 100 μL/well containing the test substance and allowed to grow overnight at 35° C. The lowest concentration of the test substance at which no bacterial growth was observed by the naked eye was determined as MIC.

S. aureus F-3095 = assay: as above; type: cell-based; settings: Staphylococcus aureus, F3095
Description: as §1, §2, §3

E. coli NIHJ = assay: as above; type: cell-based; settings: Escherichia coli, CAMHB, overnight at 35° C.
Description: as §1, §2, §3

S. aureus FDA209P = assay: as above; type: cell-based; settings: Staphylococcus aureus, CAMHB, overnight at 35° C.
Description: as §1, §2, §3

E. faecalis D-2648 = assay: as above; type: cell-based; settings: Enterococcus faecalis, D2648
Description: as §1, §2, §3

[1] = Solubility in phosphate buffer solution; type: physicochemical; settings: aqueous buffer, thermodynamic from solid; 0.2 mol/L phosphate buffer solution (pH 6.5), 25° C., shaken 48 hours

| Compound | Appearance after storage (hygroscopicity / deliquescence) (Hygroscopicity test; trihydrochloride) | Appearance after storage (hygroscopicity / deliquescence) (Hygroscopicity test; monohydrate) | MIC (S. aureus Smith) | MIC (S. aureus F-3095) | MIC (E. coli NIHJ) | MIC (S. aureus FDA209P) | MIC (E. faecalis D-2648) | solubility at 48 h [1] |
| --- | --- | --- | --- | --- | --- | --- | --- | --- |
| O=c1ccc2ncc(F)cc2n1CCN1CCC(NCc2cc3c(cn2)OCCO3)CC1 [Comparative Example 1, 1-(2-(4-((2,3-dihydro(1,4)dioxino(2,3-c)pyridin-7-ylmethyl)amino)piperidin-1-yl)ethyl)-7-fluoro-1,5-naphthyridin-2(1H)-one trihydrochloride, reference compound] | deliquesced |  |  |  |  |  |  |  |
| O=c1ccc2ncc(F)cc2n1CCN1CCC(NCc2cc3c(cn2)OCCO3)CC1 [Example 16, 1-(2-(4-((2,3-dihydro(1,4)dioxino(2,3-c)pyridin-7-ylmethyl)amino)piperidin-1-yl)ethyl)-7-fluoro-1,5-naphthyridin-2(1H)-one monohydrate] |  | powder with no apparent change | 0.0625 µg/mL | 0.0313 µg/mL | 0.125 µg/mL | 0.0313 µg/mL | 0.25 µg/mL | 21.2 mg/mL |
